Patent US7662825B2, “N-pyrazinyl-phenylsulphonamides and their use in the treatment of chemokine mediated diseases” (AstraZeneca AB, priority 2002, dated 2010)

| Structure (SMILES) | melting point [°C] |
| --- | --- |
| COc1nc(OC)c(NS(=O)(=O)c2cccc(Cl)c2Cl)nc1Cl [Example 66, 2,3-Dichloro-N-(6-chloro-3,5-dimethoxy-2-pyrazinyl)benzenesulphonamide] | 163 to 165 |
| COc1nc(N2CCOCC2)c(Cl)nc1NS(=O)(=O)c1cccc(Cl)c1Cl [Example 67, 2,3-Dichloro-N-[6-chloro-3-methoxy-5-(4-morpholinyl)-2-pyrazinyl]benzenesulphonamide] | 150 to 151 |
| COc1nc(N(C)C)c(Cl)nc1NS(=O)(=O)c1cccc(Cl)c1Cl [Example 69, 2,3-Dichloro-N-[6-chloro-5-dimethylamino-3-methoxy-2-pyrazinyl]benzenesulphonamide] | 145 to 146 |
| COCCOc1nc(OC)c(NS(=O)(=O)c2cccc(Cl)c2Cl)nc1Cl [Example 70, 2,3-Dichloro-N-[6-chloro-3-methoxy-5-(2-methoxyethoxy)-2-pyrazinyl]benzenesulphonamide] | 193 to 194 |
| COc1nc(-c2cnccn2)cnc1NS(=O)(=O)c1cccc(Cl)c1Cl [Example 72, 2,3-Dichloro-N-[6-methoxy-5-([2,2′]bipyrazinylyl)]benzenesulphonamide] | 199 to 200 |
| COc1nc(Oc2ccc(C(=O)O)cc2)cnc1NS(=O)(=O)c1cccc(Cl)c1Cl [Example 73, 4-[5-(2,3-Dichlorobenzenesulphonylamino)-6-methoxy-2-pyrazinyloxy]benzoic acid] | 186 to 187 |
| O=S(=O)(Nc1ncc(Cl)nc1Cl)c1cccc(Cl)c1Cl [Example 74, 2,3-Dichloro-N-(3,5-dichloro-2-pyrazinyl)benzenesulphonamide] | 181 to 182 |
| COCCNc1nc(OC)c(NS(=O)(=O)c2cccc(Cl)c2Cl)nc1Cl [Example 75, 2,3-Dichloro-N-{6-chloro-3-methoxy-5-([2-methoxyethyl)amino]-2-pyrazinyl}benzenesulphonamide] | 177 to 178 |
| COc1nc(NCCNC(C)=O)c(Cl)nc1NS(=O)(=O)c1cccc(Cl)c1Cl [Example 76, N-{2-[3-Chloro-5-(2,3-dichlorobenzenesulphonylamino)-6-methoxy-2-pyrazinylamino]ethyl}acetamide] | 150 to 152 |
| N#Cc1cnc(NS(=O)(=O)c2cccc(Cl)c2Cl)c(OCc2cccnc2)n1 [Example 78, 2,3-Dichloro-N-[5-cyano-3-(3-pyridinylmethoxy)-2-pyrazinyl]benzenesulphonamide] | 222 to 224 |
| CNc1nc(OC)c(NS(=O)(=O)c2cccc(Cl)c2Cl)nc1Cl [Example 79, 2,3-Dichloro-N-(6-chloro-3-methoxy-5-methylamino-2-pyrazinyl)benzenesulphonamide] | 185 to 186 |
| COc1nc(SC)cnc1NS(=O)(=O)c1cccc(Cl)c1Cl [Example 80, 2,3-Dichloro-N-(3-methoxy-5-methylsulphanyl-2-pyrazinyl)benzenesulphonamide] | 141 to 142 |
| COc1nc(-c2ccc(F)cc2F)cnc1NS(=O)(=O)c1cccc(Cl)c1Cl [Example 81, 2,3-Dichloro-N-[5-(2,4-difluorophenyl)-3-methoxy-2-pyrazinyl]benzenesulphonamide] | 169 to 170 |
| COC(=O)CSc1cnc(NS(=O)(=O)c2cccc(Cl)c2Cl)c(OC)n1 [Example 82, [5-(2,3-Dichlorobenzenesulphonylamino)-6-methoxy-2-pyrazinylsulphanyl]acetic acid methyl ester] | 152 to 153 |
| COc1nc(SCC(=O)O)cnc1NS(=O)(=O)c1cccc(Cl)c1Cl [Example 83, [5-(2,3-Dichlorobenzenesulphonylamino)-6-methoxy-2-pyrazinylsulphanyl]acetic acid] | 138 to 140 |
| COc1nc(SCc2ccccc2Cl)cnc1NS(=O)(=O)c1cccc(Cl)c1Cl [Example 84, 2,3-Dichloro-N-[5-(2-chlorobenzylsulphanyl)-3-methoxy-2-pyrazinyl]benzenesulphonamide] | 119 to 120 |
